Active and inactive are the calls of the source. The rule behind the calls is not given here.
How the values were obtained:
[1] = molecular target: cGMP-inhibited 3',5'-cyclic phosphodiesterase 3A (Homo sapiens) (UniProt Q14432); test: Inhibition of recombinant PDE3A (unknown origin) using FAM-cAMP as substrate at 10 uM incubated for 60 mins by fluorescence plate reader analysis
[2] = Volume of distribution at steady state in BALB/c mouse at 10 mg/kg, iv measured for 24 hrs post dose by LC-MS/MS analysis; format: ADME, organism-based; conditions: in vivo, read-out: Vdss
[3] = species on record: Homo sapiens; test: Selectivity for recombinant His-tagged human PDE4B over PDE4C (unknown origin)
[4] = system: Rattus norvegicus; test: Antiarthritic activity in complete Freund's adjuvant-induced Wistar rat arthritis model assessed as reduction in synovial inflammation at 30 mg/kg, ip administered from 11th day to 20th day by H&E staining based microscopic analysis; format: functional, organism-based
[5] = system: Rattus norvegicus; test: Antiarthritic activity in complete Freund's adjuvant-induced Wistar rat arthritis model assessed as reduction in paw volume at 30 mg/kg, ip administered from 11th day to 20th day by vernier caliper analysis; format: functional, organism-based
[6] = system: Rattus norvegicus; test: Antiinflammatory activity in complete Freund's adjuvant-induced Wistar rat arthritis model assessed as reduction in IL1beta expression in serum at 30 mg/kg, ip administered from 11th day to 20th day by ELISA; format: functional, organism-based
[7] = Toxicity in zebrafish embryo assessed as effect in tail formation at 1 to 100 uM; set-up: species or system Danio rerio; conditions: in vivo
[8] = system: RAW264.7; test: Antiinflammatory activity in mouse RAW264.7 cells assessed as inhibition of LPS-induced TNFalpha mRNA expression preincubated for 30 mins followed by LPS stimulation and incubated for 10 hrs by qPCR analysis; format: functional, cell-based
[9] = system: RAW264.7; test: Antiinflammatory activity in mouse RAW264.7 cells assessed as inhibition of LPS-induced iNOS expression preincubated for 30 mins followed by LPS stimulation and incubated for 10 hrs by immunoblotting analysis; format: functional, cell-based
[10] = molecular target: Cone cGMP-specific 3',5'-cyclic phosphodiesterase subunit alpha' (Homo sapiens) (UniProt P51160); test: Inhibition of recombinant N-terminal GST-tagged full length human PDE6C expressed in Sf9 cells using FAM-cGMP as substrate at 10 uM incubated for 60 mins by fluorescence plate reader analysis
[11] = Tmax in BALB/c mouse at 10 mg/kg, iv measured for 24 hrs post dose by LC-MS/MS analysis; format: ADME, organism-based; conditions: in vivo
[12] = molecular target: PDE4C (Homo sapiens, UniProt Q08493); test: Inhibition of PDE4C (unknown origin) at 100 uM using cAMP as substrate preincubated with enzyme for 15 mins followed by substrate addition and incubated for 1 hr by PDELight HTS cAMP phosphodiesterase Kit based luminometry relative to control; conditions: probe cAMP
[13] = MRTlast in BALB/c mouse at 10 mg/kg, iv measured for 24 hrs post dose by LC-MS/MS analysis; format: ADME, organism-based; conditions: in vivo
[14] = AUClast in BALB/c mouse at 10 mg/kg, iv measured for 24 hrs post dose by LC-MS/MS analysis; format: ADME, organism-based; set-up: dose 10 mg/kg, route intravenous, time 0 - last; conditions: in vivo
[15] = molecular target: 3',5'-cyclic-AMP phosphodiesterase 4A (Homo sapiens) (UniProt P27815); test: Inhibition of recombinant N-terminal GST tagged human PDE4A4B (2-end aa) expressed in Sf9 cells using FAM-cAMP as substrate at 10 uM incubated for 60 mins by fluorescence plate reader analysis
[16] = molecular target: Dual specificity calcium/calmodulin-dependent 3',5'-cyclic nucleotide phosphodiesterase 1C (Homo sapiens) (UniProt Q14123); test: Inhibition of recombinant N-terminal GST tagged human PDE1C (2 to 634 aa) expressed in Sf9 cells at 10 uM using FAM-cAMP as substrate incubated for 60 mins by fluorescence plate reader analysis
[17] = Hepatotoxicity in zebrafish embryos assessed as liver size at 1 to 100 uM incubated for 7 dpf; format: toxicity, Danio rerio; conditions: in vivo
[18] = Metabolic stability in rat liver microsomes assessed as compound remaining at 5 uM incubated for 30 mins in presence of air measured after 60 mins by LC-MS/MS analysis; format: ADME, Microsome; conditions: read-out: Stability
[19] = Toxicity in zebrafish embryo assessed as effect in heart formation at 1 to 100 uM; format: tissue-based, Danio rerio; conditions: in vivo
[20] = molecular target: cGMP-inhibited 3',5'-cyclic phosphodiesterase 3B (Homo sapiens) (UniProt Q13370); test: Inhibition of recombinant N-terminal GST-tagged human PDE3B (592-end aa) expressed in Sf9 cells using FAM-cAMP as substrate at 10 uM incubated for 60 mins by fluorescence plate reader analysis
[21] = molecular target: cGMP-specific 3',5'-cyclic phosphodiesterase (Homo sapiens) (UniProt O76074); test: Inhibition of recombinant N-terminal GST-tagged full length human PDE5A1 expressed in Sf9 cells using FAM-cGMP as substrate at 10 uM incubated for 60 mins by fluorescence plate reader analysis
[22] = Toxicity in zebrafish embryo assessed as change in body shape at 1 to 100 uM; set-up: species or system Danio rerio; conditions: in vivo
[23] = molecular target: 3',5'-cyclic-AMP phosphodiesterase 4B (Homo sapiens, UniProt Q07343); test: Inhibition of recombinant His-tagged human PDE4B expressed in Sf9 cells using cAMP as substrate preincubated with enzyme for 15 mins followed by substrate addition and incubated for 1 hr by PDELight HTS cAMP phosphodiesterase Kit based luminometry
[24] = Toxicity in zebrafish embryo assessed as effect in intestine formation at 1 to 100 uM; format: tissue-based, Danio rerio; conditions: in vivo
[25] = species on record: Homo sapiens; test: Selectivity index, ratio of IC50 for PDE4D2 (unknown origin) to IC50 for recombinant His-tagged human PDE4B expressed in sf9 cells using cAMP as substrate by PDELight HTS cAMP phosphodiesterase Kit based luminometry
[26] = system: Danio rerio; test: Anti-sclerotic activity in MOG/CFA-induced zebra fish EAE model assessed as prevention of disease progression at 3 to 30 mg/kg, ip measured for 7 days; format: functional, organism-based
[27] = system: Rattus norvegicus; test: Antiinflammatory activity in complete Freund's adjuvant-induced Wistar rat arthritis model assessed as reduction in TNFalpha expression in serum at 30 mg/kg, ip administered from 11th day to 20th day by ELISA; format: functional, organism-based
[28] = Toxicity in zebrafish embryo assessed as effect in swim bladder formation at 1 to 100 uM; set-up: species or system Danio rerio; conditions: in vivo
[29] = Toxicity in zebrafish embryo assessed as effect in notochord formation at 1 to 100 uM; set-up: species or system Danio rerio; conditions: in vivo
[30] = Toxicity in zebrafish embryo assessed as effect in somite formation at 1 to 100 uM; set-up: species or system Danio rerio; conditions: in vivo
[31] = Initial plasma concentration in BALB/c mouse at 10 mg/kg, iv measured for 24 hrs post dose by LC-MS/MS analysis; format: ADME, organism-based
[32] = molecular target: Dual specificity calcium/calmodulin-dependent 3',5'-cyclic nucleotide phosphodiesterase 1B (Homo sapiens) (UniProt Q01064); test: Inhibition of recombinant N-terminal GST tagged full length human PDE1B expressed in Sf9 cells using FAM-cAMP as substrate at 10 uM incubated for 60 mins by fluorescence plate reader analysis
[33] = molecular target: cAMP and cAMP-inhibited cGMP 3',5'-cyclic phosphodiesterase 10A (Homo sapiens) (UniProt Q9Y233); test: Inhibition of recombinant N-terminal GST-tagged full length human PDE10A2 expressed in Sf9 cells using FAM-cAMP as substrate at 10 uM incubated for 60 mins by fluorescence plate reader analysis
Sequence of cAMP and cAMP-inhibited cGMP 3',5'-cyclic phosphodiesterase 10A (Homo sapiens) (Q9Y233 whole entry): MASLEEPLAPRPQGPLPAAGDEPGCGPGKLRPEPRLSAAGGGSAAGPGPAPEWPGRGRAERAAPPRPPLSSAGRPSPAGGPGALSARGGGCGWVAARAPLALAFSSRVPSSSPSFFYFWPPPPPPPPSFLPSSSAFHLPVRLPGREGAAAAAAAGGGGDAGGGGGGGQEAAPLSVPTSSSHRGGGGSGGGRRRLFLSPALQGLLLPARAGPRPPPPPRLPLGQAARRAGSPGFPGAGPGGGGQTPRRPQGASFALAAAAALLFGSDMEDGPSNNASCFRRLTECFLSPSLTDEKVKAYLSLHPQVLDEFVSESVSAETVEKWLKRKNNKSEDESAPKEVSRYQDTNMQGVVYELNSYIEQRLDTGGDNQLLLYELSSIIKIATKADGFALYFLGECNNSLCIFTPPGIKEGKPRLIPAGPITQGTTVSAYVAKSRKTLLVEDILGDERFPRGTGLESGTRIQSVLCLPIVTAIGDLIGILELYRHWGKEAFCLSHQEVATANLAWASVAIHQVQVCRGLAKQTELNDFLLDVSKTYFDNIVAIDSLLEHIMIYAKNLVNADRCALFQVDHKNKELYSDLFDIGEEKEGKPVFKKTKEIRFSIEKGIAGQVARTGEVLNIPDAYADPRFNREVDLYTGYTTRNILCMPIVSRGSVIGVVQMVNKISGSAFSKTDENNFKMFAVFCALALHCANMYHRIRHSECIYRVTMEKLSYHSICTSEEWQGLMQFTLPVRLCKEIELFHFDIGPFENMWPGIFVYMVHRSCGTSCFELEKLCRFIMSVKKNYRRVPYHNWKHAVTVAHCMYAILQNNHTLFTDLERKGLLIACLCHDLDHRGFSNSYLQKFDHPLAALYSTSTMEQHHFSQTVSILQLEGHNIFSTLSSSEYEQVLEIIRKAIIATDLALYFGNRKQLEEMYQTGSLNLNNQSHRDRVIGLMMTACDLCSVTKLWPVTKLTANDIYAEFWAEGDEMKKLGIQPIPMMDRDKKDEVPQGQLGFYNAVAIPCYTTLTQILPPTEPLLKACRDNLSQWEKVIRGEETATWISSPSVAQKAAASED

Sequence of Dual specificity calcium/calmodulin-dependent 3',5'-cyclic nucleotide phosphodiesterase 1C (Homo sapiens) (Q14123 whole entry, the tested form may be a part): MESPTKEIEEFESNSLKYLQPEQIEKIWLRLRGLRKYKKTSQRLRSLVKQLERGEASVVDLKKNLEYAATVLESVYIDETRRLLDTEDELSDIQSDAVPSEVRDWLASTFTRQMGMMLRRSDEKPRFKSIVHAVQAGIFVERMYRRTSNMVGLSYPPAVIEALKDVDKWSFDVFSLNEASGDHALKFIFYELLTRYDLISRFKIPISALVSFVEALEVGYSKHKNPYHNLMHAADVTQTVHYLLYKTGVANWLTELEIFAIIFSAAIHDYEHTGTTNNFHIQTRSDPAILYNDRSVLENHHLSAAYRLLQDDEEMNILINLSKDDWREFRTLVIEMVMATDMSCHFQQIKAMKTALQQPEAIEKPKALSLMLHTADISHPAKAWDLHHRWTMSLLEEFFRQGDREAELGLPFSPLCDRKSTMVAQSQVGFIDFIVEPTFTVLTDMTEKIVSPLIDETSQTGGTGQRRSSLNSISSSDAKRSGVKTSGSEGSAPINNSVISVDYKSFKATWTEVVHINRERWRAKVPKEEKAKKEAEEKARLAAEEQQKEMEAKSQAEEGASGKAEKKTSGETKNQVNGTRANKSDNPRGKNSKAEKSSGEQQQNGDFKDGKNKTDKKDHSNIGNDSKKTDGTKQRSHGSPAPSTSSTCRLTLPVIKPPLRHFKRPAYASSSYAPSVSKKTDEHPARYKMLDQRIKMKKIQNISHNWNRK
Sequence of Cone cGMP-specific 3',5'-cyclic phosphodiesterase subunit alpha' (Homo sapiens) (P51160 whole entry): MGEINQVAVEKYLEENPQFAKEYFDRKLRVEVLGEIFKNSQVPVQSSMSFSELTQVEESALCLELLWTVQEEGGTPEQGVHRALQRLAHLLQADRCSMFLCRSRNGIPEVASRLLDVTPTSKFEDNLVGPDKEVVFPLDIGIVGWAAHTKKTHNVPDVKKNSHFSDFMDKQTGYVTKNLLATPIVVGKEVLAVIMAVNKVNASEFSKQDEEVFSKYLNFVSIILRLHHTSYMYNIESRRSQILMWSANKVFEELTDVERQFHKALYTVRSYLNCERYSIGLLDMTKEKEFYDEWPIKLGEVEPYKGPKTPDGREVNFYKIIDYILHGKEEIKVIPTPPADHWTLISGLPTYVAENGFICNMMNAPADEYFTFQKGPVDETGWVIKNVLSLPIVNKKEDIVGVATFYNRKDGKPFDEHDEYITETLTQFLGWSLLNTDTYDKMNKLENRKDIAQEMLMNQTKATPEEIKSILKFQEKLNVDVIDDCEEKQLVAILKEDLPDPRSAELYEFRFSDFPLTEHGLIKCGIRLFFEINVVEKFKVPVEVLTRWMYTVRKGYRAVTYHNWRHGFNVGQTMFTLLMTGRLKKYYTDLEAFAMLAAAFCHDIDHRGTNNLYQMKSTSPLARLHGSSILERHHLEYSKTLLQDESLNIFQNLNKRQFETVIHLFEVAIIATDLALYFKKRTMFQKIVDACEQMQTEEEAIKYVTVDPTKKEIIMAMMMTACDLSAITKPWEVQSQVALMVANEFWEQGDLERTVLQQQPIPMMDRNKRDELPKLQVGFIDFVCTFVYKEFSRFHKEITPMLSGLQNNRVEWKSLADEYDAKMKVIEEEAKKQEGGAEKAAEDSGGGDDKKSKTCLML
Sequence of PDE4C (Q08493 whole entry): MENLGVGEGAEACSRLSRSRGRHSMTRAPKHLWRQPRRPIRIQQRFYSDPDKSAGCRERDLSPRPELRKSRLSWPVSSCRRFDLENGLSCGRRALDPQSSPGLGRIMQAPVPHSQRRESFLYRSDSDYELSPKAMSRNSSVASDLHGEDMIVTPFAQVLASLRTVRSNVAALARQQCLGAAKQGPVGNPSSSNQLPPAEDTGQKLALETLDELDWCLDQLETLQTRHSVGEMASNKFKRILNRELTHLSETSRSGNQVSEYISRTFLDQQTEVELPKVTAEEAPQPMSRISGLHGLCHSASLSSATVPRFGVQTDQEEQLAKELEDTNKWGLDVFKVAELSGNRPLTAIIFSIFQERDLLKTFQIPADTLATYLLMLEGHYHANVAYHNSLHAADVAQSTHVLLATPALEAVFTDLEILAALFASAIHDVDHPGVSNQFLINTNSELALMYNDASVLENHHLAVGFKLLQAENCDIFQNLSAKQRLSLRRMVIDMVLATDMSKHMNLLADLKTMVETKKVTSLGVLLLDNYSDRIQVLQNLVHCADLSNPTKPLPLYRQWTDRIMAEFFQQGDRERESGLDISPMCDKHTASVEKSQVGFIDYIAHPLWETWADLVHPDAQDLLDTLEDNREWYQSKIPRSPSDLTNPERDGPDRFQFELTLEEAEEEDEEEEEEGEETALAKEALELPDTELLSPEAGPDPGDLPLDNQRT
Sequence of Dual specificity calcium/calmodulin-dependent 3',5'-cyclic nucleotide phosphodiesterase 1B (Homo sapiens) (Q01064 whole entry): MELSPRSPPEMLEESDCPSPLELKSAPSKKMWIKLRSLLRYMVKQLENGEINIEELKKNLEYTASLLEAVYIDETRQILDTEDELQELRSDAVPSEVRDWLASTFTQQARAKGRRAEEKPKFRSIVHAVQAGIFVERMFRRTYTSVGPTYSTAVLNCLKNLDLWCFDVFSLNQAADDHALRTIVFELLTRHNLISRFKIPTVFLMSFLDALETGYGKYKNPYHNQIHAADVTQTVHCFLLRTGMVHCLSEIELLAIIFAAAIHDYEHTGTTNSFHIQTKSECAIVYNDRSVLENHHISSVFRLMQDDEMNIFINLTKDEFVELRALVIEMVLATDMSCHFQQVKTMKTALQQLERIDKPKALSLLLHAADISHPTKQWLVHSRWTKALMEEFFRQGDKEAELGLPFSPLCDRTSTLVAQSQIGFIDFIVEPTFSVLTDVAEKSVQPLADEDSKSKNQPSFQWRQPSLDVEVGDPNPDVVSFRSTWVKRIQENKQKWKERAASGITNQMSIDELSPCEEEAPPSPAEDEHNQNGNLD
Sequence of cGMP-inhibited 3',5'-cyclic phosphodiesterase 3A (Homo sapiens) (Q14432 whole entry): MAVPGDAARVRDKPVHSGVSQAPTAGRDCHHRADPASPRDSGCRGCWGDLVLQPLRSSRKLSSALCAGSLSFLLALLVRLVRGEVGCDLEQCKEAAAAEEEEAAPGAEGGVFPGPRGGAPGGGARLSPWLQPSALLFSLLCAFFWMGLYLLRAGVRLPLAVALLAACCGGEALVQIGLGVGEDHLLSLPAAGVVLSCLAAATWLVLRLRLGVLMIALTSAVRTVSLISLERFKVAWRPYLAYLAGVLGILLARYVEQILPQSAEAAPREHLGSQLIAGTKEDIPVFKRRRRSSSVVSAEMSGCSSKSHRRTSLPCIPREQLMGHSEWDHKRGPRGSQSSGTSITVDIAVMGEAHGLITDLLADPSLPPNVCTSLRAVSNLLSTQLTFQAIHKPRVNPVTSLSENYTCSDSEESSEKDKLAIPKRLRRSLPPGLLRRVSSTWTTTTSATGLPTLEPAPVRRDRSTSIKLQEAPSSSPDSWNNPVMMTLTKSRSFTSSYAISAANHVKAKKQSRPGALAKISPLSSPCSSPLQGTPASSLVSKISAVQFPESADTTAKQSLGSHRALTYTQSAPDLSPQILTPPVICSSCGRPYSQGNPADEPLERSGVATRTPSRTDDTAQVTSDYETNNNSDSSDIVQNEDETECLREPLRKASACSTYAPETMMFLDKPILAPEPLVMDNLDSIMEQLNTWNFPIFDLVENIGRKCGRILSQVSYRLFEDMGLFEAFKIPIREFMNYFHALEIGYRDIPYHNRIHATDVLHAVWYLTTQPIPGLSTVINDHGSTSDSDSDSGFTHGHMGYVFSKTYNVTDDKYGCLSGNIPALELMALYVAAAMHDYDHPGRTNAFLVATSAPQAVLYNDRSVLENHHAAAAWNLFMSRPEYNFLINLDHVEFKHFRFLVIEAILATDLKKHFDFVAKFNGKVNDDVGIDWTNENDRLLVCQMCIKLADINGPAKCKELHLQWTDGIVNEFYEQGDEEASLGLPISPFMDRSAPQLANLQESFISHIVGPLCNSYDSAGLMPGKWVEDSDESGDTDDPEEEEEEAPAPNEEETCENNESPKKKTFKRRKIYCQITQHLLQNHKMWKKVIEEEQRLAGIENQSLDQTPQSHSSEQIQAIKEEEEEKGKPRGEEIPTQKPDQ

Structure (SMILES): C=CCn1cc(-c2nc3ccccc3nc2Cl)c2cc(OC)ccc21
- inhibition [1]: 1%
- Vd [2]: 4.46 L/kg
- Selectivity ratio [3]: > 250
- inhibition [4]: Active
- inhibition [5]: Active
- inhibition [6]: Active
- Activity [7]: Non-Toxic
- inhibition [8]: Active
- inhibition [9]: Active
- inhibition [10]: 2%
- Tmax [11]: 4.8 min
- inhibition at 1 h, 100 µM [12]: 20 to 30%
- MRT last at 24 h [13]: 21.6 min
- AUC(0-t) at 24 h [14]: 1090 ng·h/mL
- inhibition [15]: 36%
- inhibition [16]: 39%
- Activity [17]: Non-Toxic
- remaining at 60 min, 5 µM [18]: 42.2%
- Activity [19]: Non-Toxic
- inhibition [20]: 1%
- inhibition [21]: 2%
- Activity [22]: Non-Toxic
- IC50 [23]: 390 nM
- Activity [24]: Non-Toxic
- Ratio IC50 [25]: 27
- Activity [26]: Active
- inhibition [27]: Active
- Activity [28]: Non-Toxic
- Activity [29]: Toxic
- Activity [30]: Non-Toxic
- C0 at 24 h [31]: 5060 ng/mL
- inhibition [32]: 23%
- inhibition [33]: 15%

— ChEMBL document CHEMBL4393686, “InCl3 mediated heteroarylation of indoles and their derivatization via CH activation strategy: Discovery of 2-(1H-indol-3-yl)-quinoxaline derivatives as a new class of PDE4B selective inhibitors for arthritis and/or multiple sclerosis” (Eur J Med Chem, 2019)
